According to US5905036A, “Characterization of organic contaminants and assessment of remediation performance in subsurface formations” (Board Of Regents, The University of Texas System, priority 1997, dated 1999):
“Also recorded” adds a separate entry of the source. Read-outs that look alike come from different tables or passages of the source.

Tests used:
[1] = Partitioning tracer column experiment, PCE-contaminated water-saturated Ottawa sand (Example 1); assay type: physicochemical; conditions: water-saturated sand with residual PCE
Description: A soil column experiment was performed to illustrate the use of partitioning tracers to detect DNAPL in a saturated zone. A Kontes preparative chromatography column made of borosilicate glass (4.8 cm ID) was packed with-mesh sizes of 60 to 200 Ottawa sand and saturated with water at 23° C. The length of this sandpack was 12.24 cm. The porosity and intrinsic permeability to water were measured and found to be 0.329 and 5.84 Darcy, respectively. […] Two alcohol tracers were added to the water and 0.52 pore volumes of water containing these tracers were injected at 0.316 ml/min followed by several more pore volumes of water until the alcohols could no longer be detected in the effluent. […] The partition coefficients of each of these alcohols were determined by equilibrating samples containing in the range of 100 to 1,000 mg/l of both alcohols with equal volumes of water and PCE and measuring the alcohol concentrations in each phase using a gas chromatograph. […]
The separation of the two curves gives an unmistakable signal that the sand is contaminated with PCE. […] This value agrees with the value measured from a mass balance on the PCE within the experimental error of each of the measurements. The tracer curves were then numerically simulated using this value and the measured partition coefficients and these are the curves shown in FIG. 1. […]

[2] = Partitioning tracer column experiment after surfactant remediation of the sand (Example 2); assay type: physicochemical; conditions: no NAPL present
From the text: The contaminated sand from Example 1 was cleaned by flushing the sand with an aqueous solution of surfactant until all the trichloroethene was removed to thereby simulate a successful remediation. The procedure of Example 1 was then repeated.

[3] = Partitioning tracer column experiment, field soil contaminated with TCE; assay type: physicochemical; conditions: for Activity Coefficient, γi, in field soil: field soil contaminated with TCE
[4] = Partitioning tracer column experiment, Ottawa sand contaminated with TCE, air carrier (Example 3); conditions: for Mean Residence Times ti / Mean Residence Times ti (cc) / Activity Coefficient, γi: 0.45 cc/min; for Activity Coefficient, γi: in TCE, ideal Ki / experimental Ki; for partitioning into TCE (in words): Ottawa sand column
Description: Three columns were prepared for each experiment: (1) a contaminated primary column (2.5 cm×30 cm) saturated with residual water and TCE; (2) a contaminated pre-column (2.5 cm×60 cm) saturated with water and TCE; and (3) an uncontaminated secondary column (2.5 cm×30 cm) saturated only with water.
The primary column was mounted in a vertical configuration and a burette with 100 cc of deionized water was mounted above the column and attached to the inlet. The valve on the burette was opened and water was allowed to gravity drain into the column. After approximately one pore volume of water had entered the column, the burette was disconnected and the column was allowed to continue to gravity drain. Air was flushed through the column to displace any mobile water. The difference between the water injected and the water produced was used to determine the residual water saturation.
Next, approximately 5 cc of TCE, enough to produce a residual saturation, was injected into the primary column using a syringe and allowed to gravity drain. After draining overnight, the column was weighed for a more accurate estimate of TCE saturation. […] In both cases, water and TCE injection, the pre-column was treated in the same manner. However, larger amounts of water and TCE were injected since the pre-column is twice as large.
The primary column and pre-column were plumbed into the flowpath. Air flow was through the precolumn, past the reference side of the thermal conductivity detector (TCD), to the test column and then to the measurement side of the TCD. Two injectors, one for the gas tracers (Valco Instruments'switching valve with sample loop) and one for liquid tracers (heated injection port) were located between the reference side of the TCD and the test column. Flow rates were adjusted by the use of a snubber valve located between the precolumn and TCD. Flow rates were monitored and measured by a combination of rotameters and a bubble meter. The TCD measures the difference between the reference stream and the effluent of the test column. Additionally, water-filled manometers were affixed to each end of the column to measure pressure drops across the column.
Approximately 4 to 8 hours was required for the air stream to equilibrate and for a stable baseline to be established. When the baseline was stable, tracer injections began. Data collected from the TCD were integrated and the integration values stored to computer files data acquisition software.
After the uncontaminated column experiment had been completed, the contaminated column experiments were begun. […] The mean residence time for production of each tracer was calculated from the response curves using the method of moments. This value can be expressed in minutes or converted to volume units by multiplying by the flow rate.

[5] = cited from earlier work
[6] = water; cited from earlier work
[7] = Batch equilibrium measurement of the partition coefficient with TCE; assay type: physicochemical
From the text: Since a rate dependence was observed, the rate was lowered to 0.08 cc/min and the experiment repeated for C4 F8. In addition, a batch equilibrium measurement of the partition coefficient was made for this tracer. […] The residence time at 0.45 cc/min is about two hours and several times this may be required for equilibrium partitioning. As the partition coefficient increases, so does the residence time, so the heavier tracers should be less effected by nonequilibrium partitioning. In any case, once suitable tracers have been identified, as has been done here, either batch experiments or experiments at low rates or in longer columns (to give long residence times) can be conducted to determine the equilibrium partitioning coefficients needed for field application (assuming the residence time for the field test is long compared to the column test).

[8] = Tracer injection into uncontaminated secondary column (Example 3); assay type: physicochemical; conditions: for adsorption: inferred; for mean residence time: method of moments
Description: A secondary, uncontaminated column was packed and configured in the same manner as the contaminated column. The only modification made to this column was that the volume of water was equal to the volume of water plus TCE in the primary column. This secondary column was used to observe tracer behavior in an uncontaminated environment.
Before tracer injection began in the primary column, argon and C6 F12 were injected into the secondary column. Their breakthrough curves are plotted in FIG. 3. Using this procedure, the gas saturation in the secondary column would be similar to that in the primary column. The secondary column was first allowed to equilibrate. […] The C6 F12 was injected as a liquid through the heated injection port. The injector temperature was 40° C.; the liquid was vaporized and moved through the column as a gas. […] When mixed with air, however, they become gases.
The mean residence times should be equal since there is no TCE for the tracer to partition into. […] The flatness of the peak is believed to be a result of the fact that the liquid vaporizes slowly.

Row | Compound | Activity Coefficient, γi, in field soil [3] | Mean Residence Times ti ([4]; Ottawa sand, TCE) [min] | Mean Residence Times ti (cc) ([4]; Ottawa sand, TCE) | Activity Coefficient, γi ([4]; Ottawa sand) | Vapor Press ([5]; @ 25 ° C.) [psi] | other results
1 | [3H]O[3H] [tritiated water] | – | – | – | – | – | partitioning / retardation in PCE-contaminated column [1]: does not partition
2 | CC(C)C(C)(C)O [DMB, 2,3dimethyl 2-butanol] | – | – | – | – | – | tracer travel after remediation (in words) [2]: travel through the sand at the same rate; partitioning / retardation in PCE-contaminated column [1]: retarded relative to the IPA
3 | FC1=C(F)C(F)(F)C(F)(F)C1(F)F [C5 F8, Octafluorocyclopentene] | 17.2 | 235.0 | 105.8 | 20.3 | 12.7 | –
4 | ClC=C(Cl)Cl [TCE, trichloroethylene] | – | – | – | – | – | aqueous solubility [6]: 1385 milligrams/liter; vapor pressure ([5]; 20° C.): 1.16 psi
5 | FC1(F)C(F)(F)C(F)(F)C1(F)F [C4 F8, Octafluorocyclobutane] | 20.8 | 131.4 | 59.1 | 26.6 | – | partition coefficient, batch equilibrium [7]: about 4.7; partition coefficient at 0.08 cc/min ([4]; 0.08 cc/min, Ottawa sand, TCE): about 4.7; Vapor Press ([5]; @ 21 ° C.): 40 psi
6 | FC(F)(F)C1(F)C(F)(F)C(F)(F)C(F)(F)C(F)(F)C1(F)F [C7 F14, perfluoromethylcyclohexane] | 52.6 | 362.6 | 163.2 | 58.3 | 2.1 | –
7 | dodecafluorodimethylcyclobutane [C6 F12] | 45 | 204.4 | 92.0 | 52.0 | 7.2 | adsorption [8]: negligible; mean residence time [8]: 45 cc; factor by which mean residence time differs from argon ([4]; primary column, TCE, Ottawa sand): more than two
8 | [Ar] [Argon] | – | 93.2 | 41.9 | – | – | adsorption [8]: negligible; mean residence time [8]: 45 cc
9 | FC(F)(F)C1(F)C(F)(F)C(F)(F)C(F)(F)C(F)(C(F)(F)F)C1(F)F (stereo not shown) [C8 F16, perfluoro-1,3-dimethylcyclohexane] | 89.7 | 1055.0 | 474.8 | 63.1 | 0.67 | –
10 | FS(F)(F)(F)(F)F [SF6, Sulfur Hexafluoride] | 17.2 | 103.7 | 46.7 | 11.6 | – | partitioning into TCE (in words) [4]: small but experimentally significant partitioning; Vapor Press ([5]; @ 21 ° C.): 334 psi
11 | FC(F)(F)F [CF4, Carbon Tetrafluoride] | – | 95.1 | 42.8 | – | – | partitioning into TCE in field soil (in words) ([3]; field soil): negligible partitioning; partitioning into TCE (in words) [4]: essentially zero; also recorded: negligible partitioning
